Measured values as given in US8795630B2, “Butyrylcholinesterase ligands as diagnostic tools and treatment for diseases of the nervous system” (Treventis Corporation, priority 2008, dated 2014).

Key:
human recombinant AChE = human recombinant AChE (Homo sapiens, UniProt P22303); assay: Acetylcholinesterase in vitro assay (hydrolysis of ligand followed by UV/Vis repetitive scans); assay type: biochemical; conditions: phosphate buffer pH 8.0; change of absorbance in repeated scans
Experimental: In Examples 23-28, the interaction of the ligands with AChE was determined by measuring the rate of hydrolysis of the ligand in a buffered solution containing the enzyme. AChE stock solution consisted of 240 μg of human recombinant AChE dissolved in 1.5 mL of 0.1% aq. Gelatin. All ligands used in the assay were dissolved in a minimal amount of acetonitrile to form a ligand solution. 0.1 M Phosphate buffer PH 8.0 consisted of 1.2 g of NaH2PO4 dissolved in 100 mL of water and adjusted to the appropriate pH. The Assay was carried out by mixing 0.1 μmole of ligand solution with 5 μL of AChE stock solution and bringing the volume in a quartz cuvette of 1 cm path length to 1.5 mL with phosphate buffer. Scans using an UltraSpec 2100 Pro UV/Visible spectrophotometer over a wavelength of 200-900 nm monitored the rate of hydrolysis of the ligand by the enzyme. Change of absorbance in the spectrum indicated hydrolysis of the ligand by the enzyme.

BuChE [1] = biological target: T1, BuChE (Homo sapiens, UniProt P06276); assay: Butyrylcholinesterase in vitro assay (hydrolysis of ligand followed by UV/Vis repetitive scans); assay type: biochemical; conditions: phosphate buffer pH 8.0; change of absorbance in repeated scans
T1 sequence (P06276 29-602): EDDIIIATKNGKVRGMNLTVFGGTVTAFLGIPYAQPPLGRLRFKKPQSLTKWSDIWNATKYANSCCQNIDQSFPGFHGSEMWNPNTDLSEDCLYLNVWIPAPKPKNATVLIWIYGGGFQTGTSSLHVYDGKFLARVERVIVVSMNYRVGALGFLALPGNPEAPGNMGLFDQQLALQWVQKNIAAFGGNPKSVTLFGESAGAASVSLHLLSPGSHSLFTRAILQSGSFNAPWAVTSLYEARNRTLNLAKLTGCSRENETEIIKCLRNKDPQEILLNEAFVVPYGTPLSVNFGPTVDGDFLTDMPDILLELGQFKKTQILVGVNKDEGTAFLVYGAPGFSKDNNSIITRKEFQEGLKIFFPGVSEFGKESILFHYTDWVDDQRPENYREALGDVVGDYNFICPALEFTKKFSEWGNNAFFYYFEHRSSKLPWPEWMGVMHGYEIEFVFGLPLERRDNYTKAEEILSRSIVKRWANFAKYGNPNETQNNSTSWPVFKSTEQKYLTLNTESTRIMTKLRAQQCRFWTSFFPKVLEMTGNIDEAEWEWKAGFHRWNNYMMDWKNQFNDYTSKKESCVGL
Experimental: In Examples 39-54, interaction of the ligands with BuChE was determined by measuring the rate of the hydrolysis of the ligand in a buffered solution containing the enzyme. All ligands used in the assay were dissolved in a minimal amount of acetonitrile to form a ligand solution. 0.1 M Phosphate buffer PH 8.0 was prepared as to the above specifications. The Assay was carried out by mixing 0.1 μmol of ligand solution with 5 μL of BuChE stock solution and bringing the volume in a quartz cuvette of 1 cm path length to 1.5 mL with phosphate buffer. Scans using an UltraSpec 2100 Pro UV/Visible spectrophotometer over a wavelength of 200-900 nm monitored the rate of hydrolysis of the ligand by the enzyme. Change of absorbance in the spectrum indicated hydrolysis of the ligand by the enzyme. The results of these experiments generally indicate that enzymatic hydrolysis of the compounds does occur in the presence of BuChE.

BuChE [2] = biological target: T1, BuChE; assay: Michaelis-Menten constant and maximum reaction velocity measurement (Lineweaver-Burk plot); assay type: biochemical; conditions: room temperature, λ=285 nm, average, N=3
Experimental: In Example 55, Km and relative Vmax values were determined for compounds identified to be hydrolyzed by BuChE. The assay was carried out by mixing 1 uL of BuChE stock solution in 1.4 mL of phosphate buffer. Absorbance of this solution was calibrated to zero and the reaction commenced with the addition of 100 μL of a solution of ligand in 100% acetonitrile. The reactions were carried out at room temperature. The rate of change of absorbance (ΔA/min), reflecting the rate of hydrolysis of the ligand by enzyme was recorded every 3 seconds for a total of 36 seconds using a Milton-Roy uv-visible spectrophotometer set at λ=285 nm.
A Lineweaver-Burk plot was used in order to determine the Km (substrate concentration at which the reaction rate reaches half of its maximum value), and relative Vmax (maximum reaction velocity), values. Average Michealis-Menten constant and maximum reaction velocity values for a selection compounds (N=3) were measured, and the results are set forth in Table 1 below.

[3] = SPECT imaging and brain fraction radiation counts after injection of radiolabeled compound; assay type: in vivo; conditions: rat; after injection and several hours of SPECT imaging; sacrificed and perfused
Experimental: Shortly after the synthesis and purification detailed in Example 21, a rat was injected with the radiolabeled compound (6-oxo-1,6-dihydropyridin-2-yl)methyl-4-^123iodobenzoate and SPECT images were taken at regular time points for several hours.
After imaging, the rat was sacrificed and perfused. Radiation counts from HPLC attributable to (1,6-dihydro-6-oxopyridin-2-yl)methyl 4-^123iodobenzoate remaining in the brain fraction are shown in FIG. 4.

Chain of human recombinant AChE (P22303 32-614): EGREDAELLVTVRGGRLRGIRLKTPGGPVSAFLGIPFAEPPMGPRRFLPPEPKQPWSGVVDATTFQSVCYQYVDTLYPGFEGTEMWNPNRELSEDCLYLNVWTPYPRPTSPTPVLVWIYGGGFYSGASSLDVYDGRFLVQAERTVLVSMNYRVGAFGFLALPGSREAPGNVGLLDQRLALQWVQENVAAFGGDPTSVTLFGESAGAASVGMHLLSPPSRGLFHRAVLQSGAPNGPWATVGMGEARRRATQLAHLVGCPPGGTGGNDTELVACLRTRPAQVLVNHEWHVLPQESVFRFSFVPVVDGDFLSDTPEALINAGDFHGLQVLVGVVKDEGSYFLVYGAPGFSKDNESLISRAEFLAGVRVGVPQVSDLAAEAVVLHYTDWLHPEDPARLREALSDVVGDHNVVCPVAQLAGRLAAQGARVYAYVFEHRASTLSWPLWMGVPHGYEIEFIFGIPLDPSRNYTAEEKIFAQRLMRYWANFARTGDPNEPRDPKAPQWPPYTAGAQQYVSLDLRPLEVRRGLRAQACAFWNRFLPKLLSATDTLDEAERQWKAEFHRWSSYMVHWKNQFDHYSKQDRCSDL

CN1CCC(OC(=O)c2cccc(C#N)c2)CC1 [1′-methylpiperidin-4′-yl 3-cyanobenzoate]
enzymatic hydrolysis of the compound in the presence of AChE (human recombinant AChE): does not occur | enzymatic hydrolysis of the compound in the presence of BuChE (BuChE [1]): does occur

CN1CCC(OC(=O)c2cccc(I)c2)CC1 [1′-methylpiperidin-4′-yl 3-iodobenzoate]
enzymatic hydrolysis of the compound in the presence of AChE (human recombinant AChE): does not occur | enzymatic hydrolysis of the compound in the presence of BuChE (BuChE [1]): does occur

CN1CCC(OC(=O)c2ccc(C#N)cc2)CC1 [1′-methylpiperidin-4′-yl 4-cyanobenzoate]
enzymatic hydrolysis of the compound in the presence of AChE (human recombinant AChE): does not occur

CN1CCC(OC(=O)c2ccccc2)CC1 [1′-methylpiperidin-4′-yl benzoate]
enzymatic hydrolysis of the compound in the presence of AChE (human recombinant AChE): does not occur | enzymatic hydrolysis of the compound in the presence of BuChE (BuChE [1]): does occur

O=C(OCc1ccc[nH]c1=O)c1ccc(I)cc1 [Example 1, (1,2-dihydro-2-oxopyridin-3-yl)methyl 4-iodobenzoate]
enzymatic hydrolysis of the compound in the presence of AChE (human recombinant AChE): does not occur | enzymatic hydrolysis of the compound in the presence of BuChE (BuChE [1]): does occur

O=C(OCc1ccc[nH]c1=O)c1ccc(F)cc1 [Example 2, (1,2-dihydro-2-oxopyridin-3-yl)methyl 4-fluorobenzoate]
enzymatic hydrolysis of the compound in the presence of AChE (human recombinant AChE): does not occur | enzymatic hydrolysis of the compound in the presence of BuChE (BuChE [1]): does occur

N#Cc1ccc(C(=O)OCc2ccc[nH]c2=O)cc1 [Example 3, (1,2-dihydro-2-oxopyridin-3-yl)methyl 4-cyanobenzoate]
enzymatic hydrolysis of the compound in the presence of AChE (human recombinant AChE): does not occur | enzymatic hydrolysis of the compound in the presence of BuChE (BuChE [1]): does occur

O=C(OCc1cccc(=O)[nH]1)c1ccc(I)cc1 [Example 4, (1,6-dihydro-6-oxopyridin-2-yl)methyl 4-iodobenzoate]
enzymatic hydrolysis of the compound in the presence of AChE (human recombinant AChE): does not occur | enzymatic hydrolysis of the compound in the presence of BuChE (BuChE [1]): does occur | Vmax (relative maximum reaction velocity) (BuChE [2]): 9.7 ± 1.7 ΔA min^−1

O=C(OCc1cccc(=O)[nH]1)c1ccc(F)cc1 [Example 5, (1,6-dihydro-6-oxopyridin-2-yl)methyl 4-fluorobenzoate]
enzymatic hydrolysis of the compound in the presence of AChE (human recombinant AChE): does not occur | enzymatic hydrolysis of the compound in the presence of BuChE (BuChE [1]): does occur

N#Cc1ccc(C(=O)OCc2cccc(=O)[nH]2)cc1 [Example 6, (1,6-dihydro-6-oxopyridin-2-yl)methyl 4-cyanobenzoate]
enzymatic hydrolysis of the compound in the presence of AChE (human recombinant AChE): does not occur | enzymatic hydrolysis of the compound in the presence of BuChE (BuChE [1]): does occur

CN1CCC(OC(=O)c2ccc(I)cc2)CC1 [Example 7, 1′-methylpiperidin-4′-yl 4-iodobenzoate]
enzymatic hydrolysis of the compound in the presence of AChE (human recombinant AChE): does not occur | enzymatic hydrolysis of the compound in the presence of BuChE (BuChE [1]): does occur | Km (BuChE [2]): 26 ± 2 µM | Vmax (relative maximum reaction velocity) (BuChE [2]): 8.4 ± 0.4 ΔA min^−1

CN1CCC(OC(=O)c2ccc(F)cc2)CC1 [Example 8, 1′-methylpiperidin-4′-yl 4-fluorobenzoate]
enzymatic hydrolysis of the compound in the presence of AChE (human recombinant AChE): does not occur | enzymatic hydrolysis of the compound in the presence of BuChE (BuChE [1]): does occur | Km (BuChE [2]): 753 ± 115 µM | Vmax (relative maximum reaction velocity) (BuChE [2]): 36 ± 6 ΔA min^−1

CN1CCC(OC(=O)c2ccc(C#N)cc2)CC1 [Example 9, 1′-methylpiperidin-4′-yl 4-cyanobenzoate]
enzymatic hydrolysis of the compound in the presence of BuChE (BuChE [1]): does occur | Km (BuChE [2]): 48 ± 18 µM | Vmax (relative maximum reaction velocity) (BuChE [2]): 12 ± 3 ΔA min^−1

CN1CCC(OC(=O)c2ccccc2)CC1 [Example 10, 1′-methylpiperidin-4′-yl benzoate]
Km (BuChE [2]): 68 ± 9 µM | Vmax (relative maximum reaction velocity) (BuChE [2]): 6.8 ± 0.5 ΔA min^−1

CN1CC[C@H](OC(=O)c2ccc(I)cc2)C1 [Example 14, (5)-1′-methylpyrrolidin-3′-yl 4-iodobenzoate]
enzymatic hydrolysis of the compound in the presence of AChE (human recombinant AChE): does not occur | enzymatic hydrolysis of the compound in the presence of BuChE (BuChE [1]): does occur | Km (BuChE [2]): 16 ± 4 µM | Vmax (relative maximum reaction velocity) (BuChE [2]): 6.1 ± 0.5 ΔA min^−1

CN1CC[C@H](OC(=O)c2ccc(C#N)cc2)C1 [Example 15, (S)-1′-methylpyrrolidin-3′-yl-4-cyanobenzoate]
enzymatic hydrolysis of the compound in the presence of AChE (human recombinant AChE): does not occur | enzymatic hydrolysis of the compound in the presence of BuChE (BuChE [1]): does occur | Km (BuChE [2]): 200 ± 52 µM | Vmax (relative maximum reaction velocity) (BuChE [2]): 16 ± 4 ΔA min^−1

CN1CC[C@@H](OC(=O)c2ccc(I)cc2)C1 [Example 16, R-1′-methylpyrrolidin-3′-yl 4-iodobenzoate]
enzymatic hydrolysis of the compound in the presence of AChE (human recombinant AChE): does not occur | enzymatic hydrolysis of the compound in the presence of BuChE (BuChE [1]): does occur | Km (BuChE [2]): 144 ± 121 µM | Vmax (relative maximum reaction velocity) (BuChE [2]): 10 ± 9 ΔA min^−1

CN1CC[C@@H](OC(=O)c2ccc(C#N)cc2)C1 [Example 17, R-1′-methylpyrrolidin-3′-yl-4-cyanobenzoate]
enzymatic hydrolysis of the compound in the presence of AChE (human recombinant AChE): does not occur | enzymatic hydrolysis of the compound in the presence of BuChE (BuChE [1]): does occur | Km (BuChE [2]): 198 ± 18 µM | Vmax (relative maximum reaction velocity) (BuChE [2]): 30 ± 3 ΔA min^−1

O=C(OCc1cccc(=O)[nH]1)c1ccc([123I])cc1 [Example 21, (6-oxo-1,6-dihydropyridin-2-yl)methyl 4-^123iodobenzoate]
brain penetration (radiation counts in brain fraction, FIG. 4) [3]: penetrates into the brain

CCCC(=O)SCC[N+](C)(C)C [butyrylthiocholine, reference compound]
Km (BuChE [2]): 30.6 ± 7 µM
